Experimental data taken from US10723733B2, “Hepatitis B antiviral agents” (Enanta Pharmaceuticals, Inc., priority 2017, dated 2020).

Legend:
HBV = experiment: HepAD38 antiviral assay: reduction of viral product accumulation (virion DNA by qPCR, HBsAg/HBeAg by ELISA); assay type: cell-based; conditions: Hepatitis B virus, 120 h, HepAD38 cells, 50% reduction of viral product accumulation vs no drug controls, five days after compound addition
Description: Methods: HepAD38 cells are maintained as previously reported (Ladner et al, Antimicrob. Agents Chemother. 1997, […], 1715). Briefly, cells are passaged upon attaining confluency in DMEM/F12 media in the presence of 10% FBS, Penn/Strep, 250 μg/mL G418, and 1 μg/ml tetracycline. Novel compounds are screened by first washing cells three times with PBS to remove tetracycline, and plating in 96 well plates at 35,000 cells/well. Compounds dissolved in DMSO are then diluted 1:200 into wells containing cells. Five days after compound addition, material is harvested for analysis. For an extended 8 day analysis, cells are plated and treated as described above, but media and compound are refreshed on d2 and d5 post initial treatment.
On harvest day, virion DNA is obtained by lysing with Sidestep Lysis and Stabilization Buffer and then quantified via quantitative real time PCR. Commercially available ELISA kits are used to quantitate the viral proteins HBsAg (Alpco) or HbeAg (US Biological) by following the manufacturer's recommended protocol after diluting samples to match the linear range of their respective assays. Irrespective of readout, compound concentrations that reduce viral product accumulation in the cell lysates or supernatants by 50% relative to no drug controls (EC50) are reported; EC50 ranges are as follows: A<0.1 μM; B 0.1-1 μM; C>1 μM.

[1] = Compound toxicity, ATPLite total ATP levels; assay type: cell-based; conditions: human, HepG2 cells, 50% reduction of total ATP levels (ATPLite), three days after compound addition
Description: Compound toxicity is evaluated by seeding cells at 15,000 cells/well and treating with compound as described above.

O=S(=O)(N[C@H]1CC2=C(c3cnn(C(F)(F)F)c3)[C@H](c3ccc(F)cc3Cl)N=C(c3nccs3)N2C1)C1CC1 [Example 8]
EC50 (HBV; class symbols): < 100 nM
CC50 at 3 days [1]: 10000 to 25000 nM

NS(=O)(=O)N[C@H]1CC2=C(c3cnn(C(F)F)c3)[C@H](c3ccc(F)cc3Cl)N=C(c3nccs3)N2C1 [Example 9]
EC50 (HBV; class symbols): < 100 nM
CC50 at 3 days [1]: > 25000 nM

O=S(=O)(NC1CC1)N[C@H]1CC2=C(c3cnn(C(F)F)c3)[C@H](c3ccc(F)cc3Cl)N=C(c3nccs3)N2C1 [Example 12]
EC50 (HBV; class symbols): < 100 nM
CC50 at 3 days [1]: 10000 to 25000 nM

O=S(=O)(N[C@H]1CC2=C(c3ccn(C4CC4)n3)[C@H](c3ccc(F)cc3Cl)N=C(c3nccs3)N2C1)C1CC1 [Example 3]
EC50 (HBV; class symbols): < 100 nM
CC50 at 3 days [1]: > 25000 nM

O=S(=O)(N[C@H]1CC2=C(c3cnn(C(F)F)c3)[C@H](c3ccc(F)cc3Cl)N=C(c3nccs3)N2C1)C1CC1 [Example 1]
EC50 (HBV; class symbols): < 100 nM
CC50 at 3 days [1]: > 25000 nM

CN(C)S(=O)(=O)N[C@H]1CC2=C(c3cnn(C(F)F)c3)[C@H](c3ccc(F)cc3Cl)N=C(c3nccs3)N2C1 [Example 13]
EC50 (HBV; class symbols): < 100 nM
CC50 at 3 days [1]: > 25000 nM

COCCS(=O)(=O)N[C@H]1CC2=C(c3cnn(C(F)F)c3)[C@H](c3ccc(F)cc3Cl)N=C(c3nccs3)N2C1 [Example 57]
EC50 (HBV; class symbols): < 100 nM
CC50 at 3 days [1]: > 25000 nM

CNS(=O)(=O)N[C@H]1CC2=C(c3cnn(C(F)F)c3)[C@H](c3ccc(F)cc3Cl)N=C(c3nccs3)N2C1 [Example 11]
EC50 (HBV; class symbols): < 100 nM
CC50 at 3 days [1]: > 25000 nM

CS(=O)(=O)N[C@H]1CC2=C(c3cnn(C(F)F)c3)[C@H](c3ccc(F)cc3Cl)N=C(c3nccs3)N2C1 [Example 10]
EC50 (HBV; class symbols): < 100 nM
CC50 at 3 days [1]: > 25000 nM

O=S(=O)(N[C@H]1CC2=C(c3cnn(C(F)F)c3)[C@H](c3ccc(F)cc3Cl)N=C(c3nccs3)N2C1)N1CCCC1 [Example 19]
EC50 (HBV; class symbols): < 100 nM

[N-]=[N+]=NC[C@@]1(N=[N+]=[N-])CC2=C(c3cnn(C(F)F)c3)[C@H](c3ccc(F)cc3Cl)N=C(c3nccs3)N2C1 [Example 53]
EC50 (HBV; given as numeric bound): > 400 nM

CNC(=O)OC[C@@]1(NC(=O)OC)CC2=C(c3ccn(C(F)F)n3)[C@H](c3ccc(F)cc3Cl)N=C(c3nccs3)N2C1 [Example 71]
EC50 (HBV; given as numeric bound): > 400 nM

O=S(=O)(CC1=C(c2cnn(C(F)F)c2)[C@H](c2ccc(F)cc2Cl)N=C(c2nccs2)N1)N1CCC(O)CC1 [Example 146]
EC50 (HBV; given as numeric bound): > 400 nM

COC(=O)N[C@@]1(C(C)O)CC2=C(c3ccn(C(F)F)n3)[C@H](c3ccc(F)cc3Cl)N=C(c3nccs3)N2C1 (some centres unmarked) [Example 87]
EC50 (HBV; given as numeric bound): > 400 nM

Fc1ccc([C@@H]2N=C(c3nccs3)NC(C[C@]3(F)CO[C@@H](c4ccccc4)OC3)=C2c2cnn(C(F)F)c2)c(Cl)c1 [Example 143]
EC50 (HBV; given as numeric bound): > 400 nM

CN(C)C(=O)NCC1(C)CC2=C(c3cnn(C(F)F)c3)[C@H](c3ccc(F)cc3Cl)N=C(c3nccs3)N2C1 (some centres unmarked) [Example 42]
EC50 (HBV; given as numeric bound): > 400 nM

CC(C)(C)OC(=O)NC[C@@H]1CCC(=O)N1CC1=C(c2ccn(C(F)F)n2)[C@H](c2ccc(F)cc2Cl)N=C(c2nccs2)N1 [Example 131]
EC50 (HBV; given as numeric bound): > 400 nM

C=CC[C@]1(COS(C)(=O)=O)CC2=C(c3cnn(C(F)F)c3)[C@H](c3ccc(F)cc3Cl)N=C(c3nccs3)N2C1 [Example 39]
EC50 (HBV; given as numeric bound): > 400 nM

COC(=O)OC[C@@]1(N=[N+]=[N-])CC2=C(c3cnn(C(F)F)c3)[C@H](c3ccc(F)cc3Cl)N=C(c3nccs3)N2C1 [Example 55]
EC50 (HBV; class symbols): < 100 nM

[N-]=[N+]=NC[C@@]1(O)CC2=C(c3ccn(C(F)F)n3)[C@H](c3ccc(F)cc3Cl)N=C(c3nccs3)N2C1 [Example 113]
EC50 (HBV; class symbols): 100 to 1000 nM

COC(=O)NC[C@H]1CN(CC2=C(c3ccn(C(F)F)n3)[C@H](c3ccc(F)cc3Cl)N=C(c3nccs3)N2)C(=O)O1 [Example 125]
EC50 (HBV; given as numeric bound): > 400 nM

CC(C)n1cc(C2=C3C[C@H](NS(=O)(=O)C4CC4)CN3C(c3nccs3)=N[C@H]2c2ccc(F)cc2Cl)cn1 [Example 5]
EC50 (HBV; class symbols): < 100 nM

OC[C@]1(O)CC2=C(c3ccn(C(F)F)n3)[C@H](c3ccc(F)cc3Cl)N=C(c3nccs3)N2C1 [Example 123]
EC50 (HBV; given as numeric bound): > 400 nM

COC(=O)NCC1CC2=C(c3cnn(C(F)F)c3)[C@H](c3ccc(F)cc3Cl)N=C(c3nccs3)N2C1 (some centres unmarked) [Example 31]
EC50 (HBV; given as numeric bound): > 100 nM

CC(=O)NC[C@@]1(O)CC2=C(c3ccn(C(F)F)n3)[C@H](c3ccc(F)cc3Cl)N=C(c3nccs3)N2C1 [Example 116]
EC50 (HBV; given as numeric bound): > 400 nM

CS(=O)(=O)NCC1(F)CC2=C(c3cnn(C(F)F)c3)[C@H](c3ccc(F)cc3Cl)N=C(c3nccs3)N2C1 (some centres unmarked) [Example 43]
EC50 (HBV; class symbols): 100 to 1000 nM

CC(C)(C)OC(=O)N[C@H]1CC2=C(c3cnn(C(F)F)c3)[C@H](c3ccc(F)cc3Cl)N=C(c3nccs3)N2C1 [Example 2]
EC50 (HBV; class symbols): 100 to 1000 nM

COC(=O)N[C@]1(COC(=O)NCC(=O)O)CC2=C(c3ccn(C(F)F)n3)[C@H](c3ccc(F)cc3Cl)N=C(c3nccs3)N2C1 [Example 77]
EC50 (HBV; given as numeric bound): > 400 nM

COC(=O)N[C@]1(C(=O)NCCC(=O)OC(C)(C)C)CC2=C(c3ccn(C(F)F)n3)[C@H](c3ccc(F)cc3Cl)N=C(c3nccs3)N2C1 [Example 80]
EC50 (HBV; given as numeric bound): > 400 nM

C[C@]1(CN=[N+]=[N-])CC2=C(c3cnn(C(F)F)c3)[C@H](c3ccc(F)cc3Cl)N=C(c3nccs3)N2C1 [Example 36]
EC50 (HBV; given as numeric bound): > 400 nM

COC(=O)[C@@]1(NS(C)(=O)=O)CC2=C(c3ccn(C(F)F)n3)[C@H](c3ccc(F)cc3Cl)N=C(c3nccs3)N2C1 [Example 67]
EC50 (HBV; given as numeric bound): > 400 nM

CC1(CNS(C)(=O)=O)CC2=C(c3cnn(C(F)F)c3)[C@H](c3ccc(F)cc3Cl)N=C(c3nccs3)N2C1 (some centres unmarked) [Example 38]
EC50 (HBV; given as numeric bound): > 400 nM

[N-]=[N+]=NC[C@]1(O)CC2=C(c3ccn(C(F)F)n3)[C@H](c3ccc(F)cc3Cl)N=C(c3nccs3)N2C1 [Example 114]
EC50 (HBV; class symbols): 100 to 1000 nM

COC(=O)CC[C@]1(CC2=C(c3ccn(C(F)F)n3)[C@H](c3ccc(F)cc3Cl)N=C(c3nccs3)N2)COC(=O)N1 [Example 106]
EC50 (HBV; given as numeric bound): > 400 nM

COC(=O)N[C@]1(C(=O)NCCC(=O)O)CC2=C(c3ccn(C(F)F)n3)[C@H](c3ccc(F)cc3Cl)N=C(c3nccs3)N2C1 [Example 81]
EC50 (HBV; given as numeric bound): > 400 nM

O=S(=O)(N[C@H]1CC2=C(c3cnn(C(F)F)c3)[C@H](c3ccc(F)cc3Cl)N=C(c3nccs3)N2C1)C1CCOCC1 [Example 56]
EC50 (HBV; class symbols): < 100 nM
CC50 at 3 days [1]: > 25000 nM

CCCS(=O)(=O)N[C@H]1CC2=C(c3cnn(C(F)F)c3)[C@H](c3ccc(F)cc3Cl)N=C(c3nccs3)N2C1 [Example 22]
EC50 (HBV; class symbols): < 100 nM

C=CC[C@@]1(COS(C)(=O)=O)CC2=C(c3cnn(C(F)F)c3)[C@H](c3ccc(F)cc3Cl)N=C(c3nccs3)N2C1 [Example 40]
EC50 (HBV; given as numeric bound): > 400 nM

COC(=O)[C@@](N)(CO)CC1=C(c2ccn(C(F)F)n2)[C@H](c2ccc(F)cc2Cl)N=C(c2nccs2)N1 [Example 92]
EC50 (HBV; given as numeric bound): > 400 nM

COC(=O)N[C@@]1(C(=O)OC)CC2=C(c3ccn(C(F)F)n3)[C@H](c3ccc(F)cc3Cl)N=C(c3nccs3)N2C1 [Example 82]
EC50 (HBV; given as numeric bound): > 400 nM

O=C1N[C@@](CO)(CC2=C(c3ccn(C(F)F)n3)[C@H](c3ccc(F)cc3Cl)N=C(c3nccs3)N2)CO1 [Example 94]
EC50 (HBV; class symbols): < 100 nM
CC50 at 3 days [1]: > 25000 nM

COC(=O)N[C@@]1(CO)CC2=C(c3ccn(C(F)F)n3)[C@H](c3ccc(F)cc3Cl)N=C(c3nccs3)N2C1 [Example 84]
EC50 (HBV; class symbols): < 100 nM

O=S(=O)(N[C@H]1CC2=C(c3cnn(C4CC4)c3)[C@H](c3ccc(F)cc3Cl)N=C(c3nccs3)N2C1)C1CC1 [Example 6]
EC50 (HBV; class symbols): < 100 nM
CC50 at 3 days [1]: > 25000 nM

COC(=O)[C@]1(CC2=C(c3ccn(C(F)F)n3)[C@H](c3ccc(F)cc3Cl)N=C(c3nccs3)N2)COC(=O)N1 [Example 93]
EC50 (HBV; class symbols): < 100 nM

COC(=O)[C@@]1(O)CC2=C(c3ccn(C(F)F)n3)[C@H](c3ccc(F)cc3Cl)N=C(c3nccs3)N2C1 [Example 120]
EC50 (HBV; given as numeric bound): > 400 nM

CN(C)C(=O)NCC1CC2=C(c3cnn(C(F)F)c3)[C@H](c3ccc(F)cc3Cl)N=C(c3nccs3)N2C1 (some centres unmarked) [Example 32]
EC50 (HBV; given as numeric bound): > 100 nM

COC(=O)N[C@]1(COC(=O)NCCC(=O)O)CC2=C(c3ccn(C(F)F)n3)[C@H](c3ccc(F)cc3Cl)N=C(c3nccs3)N2C1 [Example 79]
EC50 (HBV; given as numeric bound): > 400 nM

OC[C@@]1(F)CC2=C(c3cnn(C(F)F)c3)[C@H](c3ccc(F)cc3Cl)N=C(c3nccs3)N2C1 [Example 149]
EC50 (HBV; class symbols): 100 to 1000 nM

COC(=O)N[C@]1(CO)CC2=C(c3ccn(C(F)F)n3)[C@H](c3ccc(F)cc3Cl)N=C(c3nccs3)N2C1 [Example 61]
EC50 (HBV; class symbols): < 100 nM
CC50 at 3 days [1]: > 25000 nM

OCC(F)(F)CC1=C(c2cnn(C(F)F)c2)[C@H](c2ccc(F)cc2Cl)N=C(c2nccs2)N1 [Example 147]
EC50 (HBV; given as numeric bound): > 400 nM

O=C1N[C@@](CC2=C(c3ccn(C(F)F)n3)[C@H](c3ccc(F)cc3Cl)N=C(c3nccs3)N2)(C(=O)O)CO1 [Example 104]
EC50 (HBV; given as numeric bound): > 400 nM

Fc1ccc([C@@H]2N=C(c3nccs3)N3C(=C2c2cnn(C(F)F)c2)CC2CCCC23)c(Cl)c1 (some centres unmarked) [Example 47]
EC50 (HBV; given as numeric bound): > 400 nM
